Laboratory results as given in PMC9221018, “Sulfonamide-Derived Dithiocarbamate Gold(I) Complexes Induce the Apoptosis of Colon Cancer Cells by the Activation of Caspase 3 and Redox Imbalance” (Biomedicines, 2022).

Experiments:
[1] = tested on: Human epithelial fibroblast cells (NHDF-Ad); assay: MTT viability assay in human epithelial fibroblasts; assay type: cell-based; conditions: complexes at their IC50 (1 1.14 μM, 3 1.7 μM, 8 7.22 μM, 9 8.56 μM), 72 h
Method: The human Caco-2 cell line (TC7 clone) was kindly provided by Dr. Edith Brot-Laroche (Université Pierre et Marie Curie-Paris 6, UMR S 872, Les Cordeliers, France). Human epithelial fibroblast cells (NHDF-Ad, Lonza®®, Porriño, Spain) were kindly provided by Dr. Gracia Mendoza (Aragon Health Research Institute, IIS Aragón, Spain). Caco-2 cells (passages 40–70) and fibroblasts (passages 10–30) were maintained in a humidified atmosphere of 5% CO2 at 37 °C and grown in medium following the method used by Quero et al.. The Caco-2 cells were sub-cultured in 25 cm^2 plastic flasks at a density of 1.2 × 10^4 cells/cm^2, while the fibroblasts were sub-cultured on 75 cm^2 plastic flasks at a density of 1 × 10^4 cells/cm^2. The culture medium was replaced every 2 days.
The gold complexes were diluted in dimethyl sulfoxide (DMSO) as a 10 mM stock solution, and then diluted in cell culture medium at the desired concentrations.
For the cytotoxicity screening assays, Caco-2 cells were seeded in 96-well plates at a density of 4 × 10^3 cells/well. The culture medium was replaced with medium containing the drug panel 24 h post-seeding, and the cells were incubated for 24, 48 and 72 h. […] In differentiated Caco-2 and fibroblasts, culture medium containing metal gold complexes was added 15 days post-seeding, and the cells were incubated for 72 h. The antiproliferative effect was measured using an MTT assay, as previously described by Mármol et al.. The absorbance at 540/620 nm was measured using a SPECTROstar Nano (BMG Labtech, Ortenberg, Germany). In order to determine the selectivity index (SI), the IC50 value of the differentiated Caco-2 cells was divided by IC50 value in undifferentiated Caco-2, obtaining the ratio of the normal/cancerous cells’ toxicity.

[2] = tested on: Caco-2 cells; assay: Mitochondrial membrane potential assay (DilC1); assay type: cell-based, human; conditions: complex 1 1.14 µM 48 h, complex 8 7.22 µM 72 h
Method: Caco-2 cells were seeded in 75 cm^2 flasks at a density of 1 × 10^4 cells/cm^2, and the 24-h post-seeding medium was replaced with medium containing the drug panel; it was then incubated for 48 or 72 h. The cells were then washed twice and resuspended in PBS at a concentration of 10^6 cells/mL before incubation with 5 µL of 10 µM 1,1′,3,3,3′-hexamethylindodicarbo-cyanine iodide (DilC1). After 15 min of incubation at 37 °C, 400 µL PBS was added, and the fluorescence was measured by flow cytometry at an excitation wavelength of 633 nm and an emission of 658 nm with a Beckman Coulter Gallios (Brea, CA, USA) equipped with a blue solid diode laser (488 nm) and a red solid diode laser (635 nm).

[3] = tested on: Caco-2 cells; assay: Propidium iodide DNA staining and cell cycle analysis; assay type: cell-based, human; conditions: complex 1 1.14 µM 48 h, complex 8 7.22 µM 72 h
Method: Once the cells were seeded in 25 cm^2 flasks at a density of 1 × 10^4 cells/cm^2, they were exposed, after 24 post-sendings, to the drug panel for 48 or 72 h. The cells were fixed according to the previously described methods before being stained with 50 μg/mL PI solution. The signal intensity was analysed with a Beckman Coulter Gallios (Brea, CA, USA) equipped with a blue solid diode laser (488 nm) and a red solid diode laser (635 nm), collecting fluorescence with a 620 nm-long pass filter.

[4] = target: T1, recombinant human enzyme TrxR1 (Homo sapiens, UniProt Q16881); assay: Thioredoxin reductase 1 (TrxR1) activity assay (DTNB); assay type: biochemical; conditions: recombinant TrxR1, complexes at their IC50 values (1 1.14 μM, 8 7.22 μM), 5 min incubation
T1 construct: purchased Sigma SRP 6081
T1 sequence (Q16881 161-647 limits assumed): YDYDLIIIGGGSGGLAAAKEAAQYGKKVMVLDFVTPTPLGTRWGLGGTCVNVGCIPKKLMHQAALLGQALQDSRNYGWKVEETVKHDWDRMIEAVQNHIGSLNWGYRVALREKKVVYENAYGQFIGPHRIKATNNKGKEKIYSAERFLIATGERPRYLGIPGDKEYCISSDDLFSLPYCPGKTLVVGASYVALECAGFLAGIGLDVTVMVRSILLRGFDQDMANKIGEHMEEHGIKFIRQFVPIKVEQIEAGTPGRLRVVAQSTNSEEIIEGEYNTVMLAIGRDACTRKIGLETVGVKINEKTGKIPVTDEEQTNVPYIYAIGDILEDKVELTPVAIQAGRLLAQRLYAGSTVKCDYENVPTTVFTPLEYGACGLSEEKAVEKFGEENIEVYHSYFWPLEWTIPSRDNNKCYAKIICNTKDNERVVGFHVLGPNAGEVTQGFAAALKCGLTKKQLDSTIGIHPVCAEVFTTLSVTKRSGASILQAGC
Method: The in vitro interaction of metal complexes with the enzyme thioredoxin reductase was analyzed using a thioredoxin reductase assay kit (Sigma, CS0170, St Louis, MO, USA). The procedure instructions in the kit were followed, though the rat liver thioredoxin reductase was replaced with recombinant human enzyme TrxR1 (SRP 6081, Sigma, St Louis, MO, USA). The reaction was initiated by adding DTNB (100 mM), and conversion to TNB^− was monitored at 412 nm every 30 s for 22 min using a SPECTROstar Nano (BMG Labtech, Ortenberg, Germany) multiplate reader. The results were expressed as a percentage of the TrxR activity with respect to the control.

[5] = tested on: Caco-2 cells; assay: Intracellular ROS levels, dichlorofluorescein assay; assay type: cell-based, human; conditions: Caco-2, different concentrations, 1, 3 and 24 h
Method: After the Caco-2 cells were seeded in a 96-well plate at a density of 4 × 10^3 cells/well, the intracellular ROS levels were determined with a dichlorofluorescein assay, following the protocol used by Quero et al.. The cells were exposed to the drug panel for 1, 3 and 24 h, and then incubated with 20 µM 2′-7′-dichlorofluorescein diacetate (DCFH-DA) (Merck KGaA, Darmstadt, Germany) in DMEM. The generation of oxidized derivative DCF was monitored by measuring the increase of the fluorescence for 1 h, at an emission wavelength of 520 nm and an excitation of 485 nm, using a FLUOstar Omega (BMG Labtech, Ortenberg, Germany) multiplate reader. The results were expressed as percentage of the fluorescence with respect to the control, considering the fluorescence intensity as a reflection of the intracellular ROS levels.

| Compound | decrease of cell viability [1] | mitochondrial depolarization (cells with disturbed MMP) [2] | cell cycle distribution [3] | decrease in TrxR activity [4] | intracellular ROS levels [5] |
| --- | --- | --- | --- | --- | --- |
| O=S(=O)(NC(=S)[S][Au][PH](c1ccccc1)(c1ccccc1)c1ccccc1)c1ccccc1 [Complex 1, [Au(S2CNHSO2C6H5)(PPh3)]] | did not compromise the viability | induced similar mitochondrial depolarization | significantly increased the number of cells arrested in the G1 phase | around 80% | time- and concentration-dependent pro-oxidant effect |
| [Au(S2CNHSO2-p-Me-C6H4)(IMePropargyl)] [Complex 8] | did not compromise the viability | induced similar mitochondrial depolarization | significantly increased the number of cells arrested in the G1 phase | around 80% | time- and concentration-dependent pro-oxidant effect |
